Source: ChEMBL document CHEMBL1201862, “PubChem BioAssay data set” (2004)
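Step 1: Grow cells in 96-well plates. Step 2: Expose to compound for 48 hours at 5 concentrations. Step 3: Interpolate endpoints linearly; if unreached, use highest concentration. GI50 = concentration required for 50% inhibition of growth.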 Activity calls are given as the source filed them. No stated cut-off is given here; in the data, active = GI50 up to about 1.1 µM and inactive = higher.

Columns and labels:
Assay in all cases: NCI tumour cell line growth inhibition, 48 h
SNB-75 = system: SNB-75
NCI-H226 = system: NCI-H226
SR = system: SR
K562 = system: K562
SF-295 = system: SF-295
U-251 = system: U-251
Hs-578T = system: Hs-578T
T47D = system: T47D
Malme-3M = system: Malme-3M
RXF 393 = system: RXF 393
NCI-H522 = system: NCI-H522
SK-MEL-5 = system: SK-MEL-5
SNB-19 = system: SNB-19
HOP-62 = system: HOP-62
HCT-15 = system: HCT-15
MOLT-4 = system: MOLT-4
RPMI-8226 = system: RPMI-8226
EKVX = system: EKVX
OVCAR-8 = system: OVCAR-8

Structure (SMILES) | GI50 (SNB-75) | GI50 (NCI-H226) | GI50 (SR) | GI50 (K562) | GI50 (SF-295) | GI50 (U-251) | GI50 (Hs-578T) | GI50 (T47D) | GI50 (Malme-3M) | GI50 (RXF 393) | GI50 (NCI-H522) | GI50 (SK-MEL-5) | GI50 (SNB-19) | GI50 (HOP-62) | GI50 (HCT-15) [µM] | GI50 (MOLT-4) | GI50 (RPMI-8226) | GI50 (EKVX) | GI50 (OVCAR-8)
CC(C)(C)C(=O)OCOP(=O)(OCOC(=O)C(C)(C)C)OCC1OC(n2ccc(=O)[nH]c2=O)C(N=[N+]=[N-])C1O (stereo not given) | 1.42 µM (inactive) | 9.29 µM (inactive) | 2.2 µM (inactive) | 19.1 µM (inactive) | 12.7 µM (inactive) | 2.59 µM (inactive) | 0.804 µM (active) | 1.48 µM (inactive) | 0.261 µM (active) | 2.3 µM (inactive) | 4.92 µM (inactive) | 4.9 µM (inactive) | 12.9 µM (inactive) | 2.37 µM (inactive) | 3.07 | 4.01 µM (inactive) | 1.62 µM (inactive) | 7.59 µM (inactive) | 3.06 µM (inactive)
CCOC1OCCCC1Br (stereo not given) | > 100 µM (inactive) | > 100 µM (inactive) | > 100 µM (inactive) | > 100 µM (inactive) | > 100 µM (inactive) | – | > 100 µM (inactive) | > 100 µM (inactive) | > 100 µM (inactive) | > 100 µM (inactive) | > 100 µM (inactive) | > 100 µM (inactive) | > 100 µM (inactive) | > 100 µM (inactive) | > 100 | > 100 µM (inactive) | > 100 µM (inactive) | > 100 µM (inactive) | > 100 µM (inactive)
COc1cc(OC)c2nc(C)c3c(c2c1)SCC3 | – | 20.4 µM (inactive) | 20.5 µM (inactive) | > 100 µM (inactive) | 27.5 µM (inactive) | 29.8 µM (inactive) | 19.8 µM (inactive) | 26.3 µM (inactive) | 24.7 µM (inactive) | 24.3 µM (inactive) | 36.1 µM (inactive) | 21.3 µM (inactive) | 15.6 µM (inactive) | 18.2 µM (inactive) | 42.3 | > 100 µM (inactive) | 25.9 µM (inactive) | 10.1 µM (inactive) | 19 µM (inactive)
CCOC(=O)CCC(NC(=O)c1ccc(Nc2cnc3cc(C(F)(F)F)ccc3n2)cc1)C(=O)OCC (stereo not given) | 1.9 µM (inactive) | > 79.6 µM (inactive) | > 100 µM (inactive) | 93.1 µM (inactive) | 12.8 µM (inactive) | 9.48 µM (inactive) | 6.21 µM (inactive) | > 100 µM (inactive) | > 57 µM (inactive) | 3.55 µM (inactive) | 30.3 µM (inactive) | > 100 µM (inactive) | 11.7 µM (inactive) | 11 µM (inactive) | > 100 | > 100 µM (inactive) | > 100 µM (inactive) | > 84.7 µM (inactive) | 27.2 µM (inactive)
CO/[N+]([O-])=C\C(=O)N/C=C/C(=O)O | > 100 µM (inactive) | > 100 µM (inactive) | > 100 µM (inactive) | > 100 µM (inactive) | > 100 µM (inactive) | > 100 µM (inactive) | > 100 µM (inactive) | > 100 µM (inactive) | > 100 µM (inactive) | > 100 µM (inactive) | > 100 µM (inactive) | > 100 µM (inactive) | > 100 µM (inactive) | > 100 µM (inactive) | > 100 | > 100 µM (inactive) | 79.6 µM (inactive) | > 100 µM (inactive) | > 100 µM (inactive)
CCOC(=O)c1ccc(C(=O)/C(C#N)=C2\CCCN2)n1C | 24.7 µM (inactive) | 79.1 µM (inactive) | 31 µM (inactive) | 13.3 µM (inactive) | > 100 µM (inactive) | > 100 µM (inactive) | > 100 µM (inactive) | 28.2 µM (inactive) | > 100 µM (inactive) | 25.7 µM (inactive) | 95.7 µM (inactive) | 33.6 µM (inactive) | > 100 µM (inactive) | > 100 µM (inactive) | 76.4 | 13.6 µM (inactive) | 0.703 µM (active) | > 100 µM (inactive) | > 100 µM (inactive)
CNC(=O)N(C)C(=O)c1ccccc1C(=O)N(C)C(=O)NC | > 10 µM (inactive) | > 10 µM (inactive) | > 10 µM (inactive) | > 10 µM (inactive) | > 10 µM (inactive) | > 10 µM (inactive) | > 10 µM (inactive) | > 10 µM (inactive) | > 10 µM (inactive) | > 10 µM (inactive) | > 10 µM (inactive) | > 10 µM (inactive) | > 10 µM (inactive) | > 10 µM (inactive) | > 10 | > 10 µM (inactive) | > 10 µM (inactive) | > 10 µM (inactive) | > 10 µM (inactive)
CCN(CC)CC1CCCCN1CC(=O)N1c2ccc(Br)cc2C(=O)Nc2cccnc21 (stereo not given) | 12.3 µM (inactive) | > 100 µM (inactive) | 57 µM (inactive) | > 100 µM (inactive) | > 100 µM (inactive) | > 100 µM (inactive) | > 100 µM (inactive) | > 100 µM (inactive) | > 100 µM (inactive) | > 100 µM (inactive) | > 100 µM (inactive) | > 100 µM (inactive) | > 100 µM (inactive) | > 100 µM (inactive) | > 100 | > 100 µM (inactive) | > 100 µM (inactive) | > 100 µM (inactive) | > 100 µM (inactive)
Cc1ncc([N+](=O)[O-])n1CCN(C)C(=O)CCCn1ccnc1[N+](=O)[O-] | > 100 µM (inactive) | > 100 µM (inactive) | > 100 µM (inactive) | > 100 µM (inactive) | > 100 µM (inactive) | > 100 µM (inactive) | > 100 µM (inactive) | > 100 µM (inactive) | > 100 µM (inactive) | > 100 µM (inactive) | > 100 µM (inactive) | > 100 µM (inactive) | – | > 100 µM (inactive) | > 100 | > 100 µM (inactive) | > 100 µM (inactive) | > 100 µM (inactive) | > 100 µM (inactive)
CC1(C)N=c2[nH]cnc2=C(C(N)=O)N1 | > 100 µM (inactive) | > 100 µM (inactive) | > 100 µM (inactive) | > 100 µM (inactive) | > 100 µM (inactive) | > 100 µM (inactive) | > 100 µM (inactive) | > 100 µM (inactive) | > 100 µM (inactive) | > 100 µM (inactive) | > 100 µM (inactive) | > 100 µM (inactive) | > 100 µM (inactive) | > 100 µM (inactive) | > 100 | – | > 100 µM (inactive) | > 100 µM (inactive) | > 100 µM (inactive)
COc1cc2c(c3oc4c(O)cccc4c(=O)c13)CC(C(C)(O)CO)O2 (stereo not given) | – | > 100 µM (inactive) | 34.1 µM (inactive) | 55.6 µM (inactive) | > 100 µM (inactive) | 97.9 µM (inactive) | 44.3 µM (inactive) | 75.7 µM (inactive) | 47.5 µM (inactive) | 7.74 µM (inactive) | 35.1 µM (inactive) | 53 µM (inactive) | 94.4 µM (inactive) | > 100 µM (inactive) | > 100 | 15.7 µM (inactive) | > 100 µM (inactive) | > 100 µM (inactive) | 53.1 µM (inactive)
C/C(=N\NC(=O)/C(C#N)=C\c1ccc(N(CCC#N)CCC#N)cc1)c1ccccc1 | > 10 µM (inactive) | > 10 µM (inactive) | > 10 µM (inactive) | – | > 10 µM (inactive) | – | > 10 µM (inactive) | > 10 µM (inactive) | > 10 µM (inactive) | > 10 µM (inactive) | > 10 µM (inactive) | > 10 µM (inactive) | 4.1 µM (inactive) | > 10 µM (inactive) | > 10 | > 10 µM (inactive) | > 10 µM (inactive) | > 10 µM (inactive) | > 10 µM (inactive)
COc1ccc(-n2cnc3c2=NC(C)(C)NC=3C(N)=O)c(OC)c1 | > 100 µM (inactive) | > 100 µM (inactive) | > 100 µM (inactive) | > 100 µM (inactive) | > 100 µM (inactive) | > 100 µM (inactive) | > 100 µM (inactive) | > 100 µM (inactive) | > 100 µM (inactive) | > 100 µM (inactive) | > 100 µM (inactive) | > 100 µM (inactive) | > 100 µM (inactive) | > 100 µM (inactive) | > 100 | – | > 100 µM (inactive) | > 100 µM (inactive) | > 100 µM (inactive)
O=[N+]([O-])/C=C/c1cc(Cl)c(/C=C/[N+](=O)[O-])cc1Cl | 13.8 µM (inactive) | 2.06 µM (inactive) | 0.225 µM (active) | – | 4.68 µM (inactive) | 1.63 µM (inactive) | 2.91 µM (inactive) | 2.03 µM (inactive) | 1.91 µM (inactive) | 1.46 µM (inactive) | 0.975 µM (active) | 3.53 µM (inactive) | 2.37 µM (inactive) | 3.77 µM (inactive) | 1.01 | 0.434 µM (active) | 1.25 µM (inactive) | 1.91 µM (inactive) | 1.61 µM (inactive)
COC1(CC[C@H](C)COC2OC(CO)C(O)C(O)C2O)O[C@H]2C[C@H]3[C@@H]4CC=C5C[C@@H](OC6OC(CO)C(OC7OC(C)C(O)C(O)C7O)C(O)C6OC6OC(C)C(O)C(O)C6O)CC[C@]5(C)[C@H]4CC[C@]3(C)[C@H]2[C@@H]1C (stereo not given in full) | 1.86 µM (inactive) | 5.73 µM (inactive) | > 100 µM (inactive) | – | 4.29 µM (inactive) | 2.4 µM (inactive) | 1.9 µM (inactive) | 2.45 µM (inactive) | 3.45 µM (inactive) | 4.57 µM (inactive) | 2.31 µM (inactive) | 4.98 µM (inactive) | 3.46 µM (inactive) | 1.87 µM (inactive) | 2.68 | > 23.5 µM (inactive) | 2.32 µM (inactive) | 19.5 µM (inactive) | 3.37 µM (inactive)
